Measurements published in patent US20030153546A1, “Microbicidal effect of prophyrines in darkness” (priority 1999, published 2003).

Experiments:
Assay type in all cases: cell-based
E. coli cells [1] = experiment: Inhibition of growth of E. coli cells after 5-minute incubation in the dark (optical density at 650 nm); conditions: growth at 37° C
Method: (§1) For this, porphyrines of different chemical structures (see drawing) were incubated with E. coli and S. aureus cells in the dark. The porphyrines were added to aqueous suspension comprising an amount of bacterial cells of 10^8 per ml and stored for 5 minutes in the dark. Finally, the amount of porphyrine bonded to the cells was measured depending on the number of washing […] (the washing was carried out by means of physiological solutions) by chemical extraction followed spectrophotofluorimetric determination.
(§2) The survival rate of the bacterial cells after incubation with the different porphyrines was determined by diluting 0.3 ml of the suspension with 2.7 ml of the culture medium and recording the optical density at 650 nm depending on the time. The suspensions were kept at 37° C. The percentual inhibition of growth was calculated with reference to a suspension of comparative cells which had been treated with the same method, however had not been added to the porphyrine.

S. aureus cells [2] = experiment: Inhibition of growth of S. aureus cells after 5-minute incubation in the dark (optical density at 650 nm); conditions: growth at 37° C
Method: as §1, §2

E. coli cells [3] = experiment: Recovery of porphyrine bonded to E. coli cells after dark incubation and washing steps; conditions: 1 μM porphyrine, 5 minutes
Method: as §1

S. aureus cells [4] = experiment: Recovery of porphyrine bonded to S. aureus cells after dark incubation and washing steps; conditions: 1 μM porphyrine, 5 minutes in the dark
Method: as §1

SMILES | inhibition of growth (%) E. coli (E. coli cells [1]; 1 μM porphyrine) | inhibition of growth (%) E. coli (E. coli cells [1]; 10 μM porphyrine) | inhibition of growth (%) S. aureus (S. aureus cells [2]; 1 μM porphyrine) | inhibition of growth (%) S. aureus (S. aureus cells [2]; 10 μM porphyrine) | recovery (nmol/mg protein) 1 washing step (E. coli cells [3]) | recovery (nmol/mg protein) 3 washing steps (E. coli cells [3]) | % bonded after 3 washing steps (E. coli cells [3]) | recovery (nmol/mg protein) no washing (E. coli cells [3]) | recovery (nmol/mg protein) 1 washing step (S. aureus cells [4]) | recovery (nmol/mg protein) 3 washing steps (S. aureus cells [4]) | % bonded after 3 washing steps (S. aureus cells [4]) | recovery (nmol/mg protein) no washing (S. aureus cells [4])
CCCCCCCCCCCCCCCCCC[n+]1ccc(-c2c3nc(c(-c4cc[n+](C)cc4)c4ccc([nH]4)c(-c4cc[n+](C)cc4)c4nc(c(-c5cc[n+](C)cc5)c5ccc2[nH]5)C=C4)C=C3)cc1 [mono-C18] | 2.7% | 85.7% | 39.8% | 96.6% | 4.08 ± 0.62 nmol/mg protein | 2.54 ± 0.38 nmol/mg protein | 60.5% | 4.20 ± 0.16 nmol/mg protein | – | – | – | –
C[n+]1ccc(-c2c3nc(c(-c4cc[n+](C)cc4)c4ccc([nH]4)c(-c4cc[n+](Cc5ccccc5)cc4)c4nc(c(-c5cc[n+](C)cc5)c5ccc2[nH]5)C=C4)C=C3)cc1 [mono-benzyl] | 0.1% | 13% | 1.6% | 25% | 1.67 ± 0.06 nmol/mg protein | 0.71 ± 0.08 nmol/mg protein | 28.2% | 2.52 ± 0.13 nmol/mg protein | – | – | – | –
CCCCCCCCCCCCCC[n+]1ccc(-c2c3nc(c(-c4cc[n+](C)cc4)c4ccc([nH]4)c(-c4cc[n+](C)cc4)c4nc(c(-c5cc[n+](C)cc5)c5ccc2[nH]5)C=C4)C=C3)cc1 [mono-C14] | 46.1% | 100% | 69.1% | 92.4% | 3.06 ± 0.25 nmol/mg protein | 2.28 ± 0.04 nmol/mg protein | 42.4% | 5.38 ± 0.06 nmol/mg protein | 5.53 ± 0.74 nmol/mg protein | 4.32 ± 0.13 nmol/mg protein | 65.9% | 6.56 ± 0.40 nmol/mg protein
C[n+]1ccc(-c2c3nc(c(-c4cc[n+](C)cc4)c4ccc([nH]4)c(-c4cc[n+](C)cc4)c4nc(c(-c5cc[n+](C)cc5)c5ccc2[nH]5)C=C4)C=C3)cc1 [T4MPyP] | 0.6% | 3.1% | 3.1% | 7.8% | 0.19 ± 0.04 nmol/mg protein | 0.05 ± 0.01 nmol/mg protein | 11.4% | 0.44 ± 0.04 nmol/mg protein | 0.10 ± 0.01 nmol/mg protein | 0.11 ± 0.01 nmol/mg protein | 16.2% | 0.68 ± 0.05 nmol/mg protein
CCCCCCCCCC[n+]1ccc(-c2c3nc(c(-c4cc[n+](C)cc4)c4ccc([nH]4)c(-c4cc[n+](C)cc4)c4nc(c(-c5cc[n+](C)cc5)c5ccc2[nH]5)C=C4)C=C3)cc1 [mono-C10] | 4.6% | 10.7% | 27.8% | 50% | 2.78 ± 0.53 nmol/mg protein | 1.48 ± 0.38 nmol/mg protein | 40.4% | 3.66 ± 0.071 nmol/mg protein | 5.70 ± 0.54 nmol/mg protein | 4.09 ± 0.13 nmol/mg protein | 57.4% | 7.13 ± 0.25 nmol/mg protein
CCCCCCCCCCCCCCCCCCCCCC[n+]1ccc(-c2c3nc(c(-c4cc[n+](C)cc4)c4ccc([nH]4)c(-c4cc[n+](C)cc4)c4nc(c(-c5cc[n+](C)cc5)c5ccc2[nH]5)C=C4)C=C3)cc1 [mono-C22] | 19.1% | 16.8% | 39.9% | 70.1% | 2.60 ± 0.04 nmol/mg protein | 3.04 ± 0.34 nmol/mg protein | 59.4% | 5.12 ± 0.46 nmol/mg protein | 5.65 ± 0.13 nmol/mg protein | 4.95 ± 0.30 nmol/mg protein | 77.5% | 6.39 ± 0.40 nmol/mg protein
CCCCCC[n+]1ccc(-c2c3nc(c(-c4cc[n+](CCCCCC)cc4)c4ccc([nH]4)c(-c4cc[n+](CCCCCC)cc4)c4nc(c(-c5cc[n+](CCCCCC)cc5)c5ccc2[nH]5)C=C4)C=C3)cc1 [tetra-C6] | – | – | – | – | 1.39 ± 0.23 nmol/mg protein | 0.94 ± 0.24 nmol/mg protein | 57.0% | 1.65 ± 0.17 nmol/mg protein | – | – | – | –
CCCCCC[n+]1ccc(-c2c3nc(c(-c4cc[n+](C)cc4)c4ccc([nH]4)c(-c4cc[n+](C)cc4)c4nc(c(-c5cc[n+](C)cc5)c5ccc2[nH]5)C=C4)C=C3)cc1 [mono-C6] | 0.5% | 14.6% | 5.1% | 8.8% | 1.01 ± 0.12 nmol/mg protein | 0.39 ± 0.12 nmol/mg protein | 24.7% | 1.58 ± 0.28 nmol/mg protein | 2.05 ± 0.11 nmol/mg protein | 1.02 ± 0.12 nmol/mg protein | 33.6% | 3.04 ± 0.05 nmol/mg protein
